From patent US11524966B1 (Valo Early Discovery, Inc., priority 2017, dated 2022) come the findings set out here.

In the assay the target is T1, USP28 (His-tagged USP28-FL-mammalian) (Homo sapiens, UniProt Q96RU2).
T1 construct: Expression of USP28 (1-1077)-TEV-6*His (pTT5 vector); made in house; host or cells: Expi293f cells (pTT5 vector)
T1 sequence (Q96RU2 1-1077): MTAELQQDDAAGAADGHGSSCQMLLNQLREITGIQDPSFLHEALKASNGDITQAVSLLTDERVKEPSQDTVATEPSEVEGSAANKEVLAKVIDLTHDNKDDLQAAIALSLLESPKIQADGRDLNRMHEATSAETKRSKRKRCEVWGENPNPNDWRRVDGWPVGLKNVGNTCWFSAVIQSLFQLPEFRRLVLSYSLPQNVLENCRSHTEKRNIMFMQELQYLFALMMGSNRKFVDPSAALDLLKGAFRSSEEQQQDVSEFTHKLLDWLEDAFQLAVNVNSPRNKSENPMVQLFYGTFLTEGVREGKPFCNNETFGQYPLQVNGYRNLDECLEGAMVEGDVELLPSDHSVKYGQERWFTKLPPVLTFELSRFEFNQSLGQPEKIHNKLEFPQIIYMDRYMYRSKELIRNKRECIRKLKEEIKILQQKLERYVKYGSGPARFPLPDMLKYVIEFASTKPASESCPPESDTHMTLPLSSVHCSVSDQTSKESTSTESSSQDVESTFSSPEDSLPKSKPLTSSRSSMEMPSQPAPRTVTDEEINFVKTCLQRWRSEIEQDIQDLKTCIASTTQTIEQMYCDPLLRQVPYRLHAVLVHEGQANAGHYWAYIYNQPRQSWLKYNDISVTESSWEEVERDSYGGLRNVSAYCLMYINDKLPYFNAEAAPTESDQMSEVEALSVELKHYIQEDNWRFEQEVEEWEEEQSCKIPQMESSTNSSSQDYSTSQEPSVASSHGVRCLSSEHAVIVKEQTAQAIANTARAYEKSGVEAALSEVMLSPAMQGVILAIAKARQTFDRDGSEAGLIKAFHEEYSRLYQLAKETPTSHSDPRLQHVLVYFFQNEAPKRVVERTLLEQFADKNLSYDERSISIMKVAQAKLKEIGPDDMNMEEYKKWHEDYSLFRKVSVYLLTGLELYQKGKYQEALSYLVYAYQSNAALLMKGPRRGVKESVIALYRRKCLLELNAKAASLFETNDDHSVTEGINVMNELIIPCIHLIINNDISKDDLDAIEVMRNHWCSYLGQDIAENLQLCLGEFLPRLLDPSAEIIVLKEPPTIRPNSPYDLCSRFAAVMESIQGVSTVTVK
As to the kind of experiment: Ubiquitin-Rhodamine 110 Assay for USP28 Activity, Example A-1(a). The assay is classed as biochemical. To be noted: Ubiquitin-Rhodamine 110 assay, Example A-1(a); read-out: USP28 A-1(a) IC50 range. On the procedure: Example A-1(a): Biochemical Assay: Ubiquitin-Rhodamine 110 Assay for USP28 Activity
The assay was performed in a final volume of 9 μL in assay buffer containing 20 mM Tris-HCl (pH 8.0, (1M Tris-HCl, pH 8.0 solution; Corning 46-031-CM)), 3 mM BME (2-Mercaptoethanol; Sigma 63689-25ML-F), 0.03% BGG (0.22 μM filtered, Sigma, G7516-25G), and 0.01% Triton X-100 (Sigma, T9284-10L). Nanoliter quantities of 10-point, 3-fold serial dilution in DMSO was pre-dispensed into 1536 assay plates (Corning, #3724BC) for a final test concentration of 25 μM to 1.3 nM, top to lowest dose, respectively. Enzyme USP28, construct His-tagged USP28-FL-mammalian, (protein expression and purification procedure described below). Concentration and incubation times were optimized for the maximal signal-to-background while maintaining initial velocity conditions at a fixed substrate concentration. The final concentration of the enzyme in the assay was 75 μM. Final substrate (Ub-Rh110; Ubiquitin-Rhodamine 110, UbiQ-126) concentration was 25 nM with [Ub-Rh110]<<Km. 3 μL of 2× enzyme was added to assay plates (pre-stamped with compound) preincubated with […] for 30 minutes and then 3 μL of 2×Ub-Rh110 was added to assay plates. Plates were incubated for 45 minutes at room temperature before addition of 3 μL of stop solution (final concentration of 10 mM citric acid (Sigma, 251275-500G)). Fluorescence was read on the Envision (Excitation at 485 nm and Emission at 535 nm; Perkin Elmer) or on the PheraSTAR (Excitation at 485 nm and Emission at 535 nm; BMG Labtech).
Procedure for the Protein Expression and Purification for Construct His-Tagged USP28-FL-Mammalian
Expression of USP28 (1-1077)-TEV-6*His (pTT5 vector) was carried out in Expi293f cells (sequence derived from uniprot ID: Q96RU2-1). Cells were re-suspended in lysis buffer B 50 mM Bicine, pH 8.0, 20 mM NaCl, 5% glycerol, 0.1% CHAPS, 5 mM β-ME, 1 mM PMSF, 1 ug/ml Leupeptin, 1 ug/ml Pepstatin) and lysed by sonication. Insoluble material was removed by centrifugation and the supernatant was loaded onto a Ni-NTA column (GE Healthcare) equilibrated with Ni Buffer A (50 mM Bicine, pH 8.0, 20 mM NaCl, 5% glycerol, 0.1% CHAPS, 5 mM β-ME.) and washed with Ni Buffer A+20 mM imidazole until A280 reached baseline. The protein was eluted with Ni Buffer B (50 mM Bicine, pH 8.0, 20 mM NaCl, 5% glycerol, 0.1% CHAPS, 5 mM β-ME, 300 mM imidazole.). The protein was further purified using a Superdex™ 200 10/300 GL column (GE Healthcare) equilibrated with 50 mM Bicine, pH 8.0, 20 mM NaCl, 5% glycerol, 0.1% CHAPS, 5 mM β-ME. The protein was concentrated to 2.5 mg ml^−1, flash-frozen in liquid N2 and stored at −80° C.
For assay formats Example A-1(a), A-1(b), and A-2, data were reported as percent inhibition compared with control wells based on the following equation: % inh=1−((FLU−AveLow)/(AveHigh−AveLow)) where FLU=measured Fluorescence, AveLow=average Fluorescence of no enzyme control (n=16), and AveHigh=average Fluorescence of DMSO control (n=16). IC50 values were determined by curve fitting of the standard 4 parameter logistic fitting algorithm included in the Activity Base software package: IDBS XE Designer Model 205. Data is fitted using the Levenburg Marquardt algorithm.

The IC50 is the concentration that gives 50% inhibition. For `CN[C@H]1CN(c2ccc3c(n2)CC[C@H](NC(=O)c2sc4nc(C)ccc4c2N)C3)C[C@@H]1COC` (single isomer, unassigned) [Example 26-1], the IC50 was 50 to 200 nM.

On to `CN[C@@H]1CN(c2ccc3c(n2)CC[C@H](NC(=O)c2sc4nc(C)ccc4c2N)C3)C[C@H]1COC` (single isomer, unassigned) [Example 26-2], for which the IC50 was 50 to 200 nM.

`Cc1ccc2c(N)c(C(=O)N[C@H]3CCc4nc(N5C[C@@H](CF)[C@@H](N)C5)ccc4C3)sc2n1` (single isomer, unassigned) [Example 27-1]: the IC50 lay in the range of 50 to 200 nM.

In the case of `Cc1ccc2c(N)c(C(=O)N[C@H]3CCc4nc(N5C[C@H](CF)[C@H](N)C5)ccc4C3)sc2n1` (single isomer, unassigned) [Example 27-2], the half-inhibitory concentration (IC50) was 50 to 200 nM.

With `COCCO[C@H]1CN(c2ccc3c(n2)CC[C@H](NC(=O)c2sc4nc(C)ccc4c2N)C3)C[C@@H]1N` (single isomer, unassigned) [Example 28-1], the IC50 fell in the range of 200 to 2000 nM.

As to `COCCO[C@@H]1CN(c2ccc3c(n2)CC[C@H](NC(=O)c2sc4nc(C)ccc4c2N)C3)C[C@H]1N` (single isomer, unassigned) [Example 28-2], the 50% inhibitory concentration (IC50) fell in the range of 200 to 2000 nM.

`Cc1ccc2c(N)c(C(=O)N[C@H]3CCc4nc(N5C[C@H](N)C6(C5)OCCO6)ccc4C3)sc2n1` (single isomer, unassigned) [Example 29-1]: the IC50 fell in the range of 200 to 2000 nM.

For `Cc1ccc2c(N)c(C(=O)N[C@H]3CCc4nc(N5C[C@@H](N)C6(C5)OCCO6)ccc4C3)sc2n1` (single isomer, unassigned) [Example 29-2], the IC50 lay within 200 to 2000 nM.

As to `Cc1cc(C)c2c(N)c(C(=O)N[C@H]3CCc4nc(N5C[C@H](OC(C)C)[C@@H](N)C5)ncc4C3)sc2n1` (single isomer, unassigned) [Example 31-1], the IC50 lay in the range of 50 to 200 nM.

For `Cc1cc(C)c2c(N)c(C(=O)N[C@@H]3CCc4nc(N5C[C@H](OC(C)C)[C@@H](N)C5)ncc4C3)sc2n1` (single isomer, unassigned) [Example 31-2], the IC50 is over 2000 nM.

For the compound `Cc1ccc2c(N)c(C(=O)N[C@H]3CCc4cc(N5CCNCC5)ncc4C3)sc2n1` (single isomer, unassigned) [Example 32-1], the IC50 lay within 50 to 200 nM.

Turning to `Cc1ccc2c(N)c(C(=O)N[C@@H]3CCc4cc(N5CCNCC5)ncc4C3)sc2n1` (single isomer, unassigned) [Example 32-2], the IC50 was in the range of 200 to 2000 nM.

In the case of `Cc1ccc2c(N)c(C(=O)N(C)[C@@H]3COc4cc(N5CCNCC5)cc(F)c4C3)sc2n1` [Example 10-16, 3-amino-N-[(3S)-5-fluoro-7-(piperazin-1-yl)-3,4-dihydro-2H-1-benzopyran-3-yl]-N,6-dimethylthieno[2,3-b]pyridine-2-carboxamide], the IC50 was over 2000 nM.

Turning to `Cc1ccc2c(N)c(C(=O)N[C@H]3COc4cc(N5CC6CNCC(C5)C6(F)F)ncc4C3)sc2n1` [Example 114, 3-amino-N-[(3R)-7-{9,9-difluoro-3,7-diazabicyclo[3.3.1]nonan-3-yl}-2H,3H,4H-pyrano[3,2-c]pyridin-3-yl]-6-methylthieno[2,3-b]pyridine-2-carboxamide], the IC50 lay within 1 to 50 nM.

On to `CO[C@H]1CN(c2cc3c(cn2)C[C@@H](NC(=O)c2sc4nc(C)ccc4c2N)CO3)C[C@@H]1N` [Example 179, 3-amino-N-[(3R)-7-[(3S,4S)-3-amino-4-methoxypyrrolidin-1-yl]-2H,3H,4H-pyrano[3,2-c]pyridin-3-yl]-6-methylthieno[2,3-b]pyridine-2-carboxamide], for which the IC50 was in the range of 1 to 50 nM.

Consider `CCO[C@H]1CN(c2cc3c(cn2)C[C@@H](NC(=O)c2sc4nc(C)ccc4c2N)CO3)C[C@@H]1N` [Example 180, 3-amino-N-[(3R)-7-[(3S,4S)-3-amino-4-ethoxypyrrolidin-1-yl]-2H,3H,4H-pyrano[3,2-c]pyridin-3-yl]-6-methylthieno[2,3-b]pyridine-2-carboxamide], for which the IC50 lay within 1 to 50 nM.

For the compound `CO[C@H]1CN(c2ncc3c(n2)CC[C@H](NC(=O)c2sc4nc(C)ccc4c2N)C3)C[C@@H]1N` [Example 186, 3-amino-N-[(6S)-2-[(3S,4S)-3-amino-4-methoxypyrrolidin-1-yl]-5,6,7,8-tetrahydroquinazolin-6-yl]-6-methylthieno[2,3-b]pyridine-2-carboxamide], the IC50 is over 2000 nM.

`CO[C@H]1CN(c2ncc3c(n2)CC[C@@H](NC(=O)c2sc4nc(C)ccc4c2N)C3)C[C@@H]1N` [Example 187, 3-amino-N-[(6R)-2-[(3S,4S)-3-amino-4-methoxypyrrolidin-1-yl]-5,6,7,8-tetrahydroquinazolin-6-yl]-6-methylthieno[2,3-b]pyridine-2-carboxamide]: the IC50 lay in the range of 200 to 2000 nM.

On to `Cc1ccc2c(N)c(C(=O)N[C@H]3CCc4nc(N5C[C@H](OC(C)C)[C@@H](N)C5)ncc4C3)sc2n1` [Example 271, 3-amino-N-[(6S)-2-[(3S,4S)-3-amino-4-(propan-2-yloxy)pyrrolidin-1-yl]-5,6,7,8-tetrahydroquinazolin-6-yl]-6-methylthieno[2,3-b]pyridine-2-carboxamide], for which the IC50 was over 2000 nM.

`Cc1ccc2c(N)c(C(=O)N[C@@H]3CCc4nc(N5C[C@H](OC(C)C)[C@@H](N)C5)ncc4C3)sc2n1` [Example 272, 3-amino-N-[(6R)-2-[(3S,4S)-3-amino-4-(propan-2-yloxy)pyrrolidin-1-yl]-5,6,7,8-tetrahydroquinazolin-6-yl]-6-methylthieno[2,3-b]pyridine-2-carboxamide]: the IC50 is 200 to 2000 nM.

In the case of `CO[C@H]1CN(c2ncc3c(n2)CC[C@H](NC(=O)c2sc4nc(C)cc(C)c4c2N)C3)C[C@@H]1N` [Example 273, 3-amino-N-[(6S)-2-[(3S,4S)-3-amino-4-methoxypyrrolidin-1-yl]-5,6,7,8-tetrahydroquinazolin-6-yl]-4,6-dimethylthieno[2,3-b]pyridine-2-carboxamide], the IC50 was over 2000 nM.
